No end group written: not given here.
Assays:
[1] = tested on: in vitro epithelial tissue model; assay: Papp of drugs with and without PN159, in vitro tissue model; settings: for Papp: Galantamine 40 mg/mL, pH 5.0
Method: In the present studies, 40 mg/ml galantamine in the lactate salt form was combined with 25, 50, and 100 μM PN159 in solution, pH 5.0 and osmolarity ˜270 mOsm. The combination was tested using an in vitro epithial tissue model to monitor galantamine permeation, transepithelial electrical resistance (TER), and the cytotoxicity of the formulation by LDH and MTT assays as described above. Permeation measurements for galantamine were conducted by standard HPLC analysis, as follows.
Galantamine concentration in the formulation and in the basolateral media (permeation samples) was determined using an isocratic LC (Waters Alliance) method with UV detection. • Column: Waters Symmetry Shield, C18, 5 um, 25×0.46 cm • Mobile phase: 5% ACN in 50 mM ammonium formate, pH 3.0 • Flow rate: 1 ml/min • Column temperature: 30° C. • Calibration curve: 0-400 μg/ml Galantamine HBr • Detection: UV at 285 nm
To evaluate permeabilizing activity in this context, 40 mg/ml galantamine in the lactate salt form was combined with 25, 50, and 100 μM PN159 in solution, pH 5.0 and osmolarity ˜270 mOsm. The combination was tested using an in vitro epithelal tissue model to monitor galantamine permeation, transepithelial electrical resistance (TER), and the cytotoxicity of the formulation by LDH and MTT assays.
For this purpose, in vitro tissue studies were performed on salmon calcitonin as a model therapeutic peptide in the absence and presence of […] PN159.

[2] = Intranasal PYY(3-36) pharmacokinetics in rabbits with various TJMPs (Example 10); type: in vivo, New Zealand White rabbits; settings: for AUCinf / AUClast / Cmax / T1/2 / Tmax: PYY(3-36) in plasma, 205 μg/kg intranasal with the named TJMP (concentration per Table 11, 50-1000 μM) or PBS, mean; for AUCinf / AUClast / Cmax / T1/2 / Tmax / In Vivo Tier Ranking: rabbit; for In Vivo Tier Ranking: PYY(3-36) 205 μg/kg intranasal, TJMP concentration per Table 11: PN159 50 μM, PN161, PN202 100 μM, PN27 250 μM, PN58, PN73, PN228 500 μM, PN183, PN556 1000 μM; for in vivo permeability relative to PN159: PYY(3-36) intranasal in rabbits, TJMPs at the concentrations tested
Text: The tubes were chilled until […].

[3] = tested on: human-derived tracheal/bronchial epithelial cells (EpiAirway™ Tissue model system); assay: Cytotoxicity (LDH assay), EpiAirway tissue model; type: cell-based
Method: The amount of cell death was assayed by measuring the release of lactate dehydrogenase (LDH) from the cells into the apical medium using a CytoTox 96 Cytotoxicity Assay Kit (Promega Corp., Madison, Wis.). One percent Octylphenolpoly (ethyleneglycolether)×(Triton X-100™) diluted in phosphate buffered saline (PBS) causes 100% lysis in cultured cells and served herein as a positive control for the LDH assay. Following the one hour incubation period with a test formulation (refer to Table 4 in Example 2 for details of test formulations), the total liquid volume of each insert was brought to a final volume of 200 μl with culture medium. The apical medium was then mixed by pipetting four times with a multichannel pipette set to a 100 μl volume. After mixing, a 100 μl sample from the apical side of each insert was transferred to a new 96-well plate. The apical media samples were sealed with a plate sealer and stored at room temperature for same day analysis or stored overnight at 4° C. for analysis the next day. To measure LDH levels, 5 μl of the 100 μl apical media sample was diluted in 45 μl DPBS in a new 96-well plate. Fresh, cell-free culture medium will be used as a blank. Fifty microliters of substrate solution was added to each well and incubated for 30 minutes at room temperature away from direct light. Following the 30 minute incubation, 50 μl of stop solution was added to each well. Optical density (OD) was measured at 490 nm with a uQuant absorbance plate reader from Biotek Instruments. The measurement of LDH release into the apical media indicates relative cytotoxicity of the samples. Percent cytotoxicity for each test formulation was calculated by subtracting the measured absorbance of the PBS control (basal level of LDH release) from the measured absorbance of the individual test formulation and then dividing that value by the measured absorbance for the 1% Triton X-100™ positive control, multiplied by 100.
The formula used to calculate percent cytotoxicity is as follows: [formula] Osmolality
Of the total 300 μl volume for each test formulation, only a 20 μl sample was applied to the human-derived tracheal/bronchial epithelial cells (EpiAirway™ Tissue model system) in order to assess the effect each test formulation had on TER, LDH and sample permeation.

Compound	AUCinf [2] [pg·min/mL]	AUClast [2] [pg·min/mL]	Cmax [2] [µg/mL]	T1/2 [2] [min]	Tmax [2] [min]	further results
CC(C)C[C@H](NC(=O)[C@H](CCCCN)NC(=O)CNC(=O)[C@H](CC(C)C)NC(=O)[C@@H](NC(=O)[C@@H]1CSSC[C@H](N)C(=O)N[C@@H](CO)C(=O)N[C@@H](CC(N)=O)C(=O)N[C@@H](CC(C)C)C(=O)N[C@@H](CO)C(=O)N[C@@H]([C@@H](C)O)C(=O)N1)C(C)C)C(=O)N[C@@H](CO)C(=O)N[C@@H](CCC(N)=O)C(=O)N[C@@H](CCC(=O)O)C(=O)N[C@@H](CC(C)C)C(=O)N[C@@H](Cc1c[nH]cn1)C(=O)N[C@@H](CCCCN)C(=O)N[C@@H](CC(C)C)C(=O)N[C@@H](CCC(N)=O)C(=O)N[C@H](C(=O)N[C@@H](Cc1ccc(O)cc1)C(=O)N1CCC[C@H]1C(=O)N[C@@H](CCCNC(=N)N)C(=O)N[C@H](C(=O)N[C@@H](CC(N)=O)C(=O)N[C@H](C(=O)NCC(=O)N[C@@H](CO)C(=O)NCC(=O)N[C@H](C(=O)N1CCC[C@H]1C(N)=O)[C@@H](C)O)[C@@H](C)O)[C@@H](C)O)[C@@H](C)O [Calcitonin, salmon calcitonin]						fold increase in Papp of calcitonin with PN159 [1]: 23-47 fold
CC[C@H](C)[C@H](NC(=O)[C@H](CCCCN)NC(=O)[C@@H](NC(=O)[C@H](CCC(N)=O)NC(=O)[C@@H](N)CCCNC(=N)N)[C@@H](C)CC)C(=O)N[C@@H](Cc1c[nH]c2ccccc12)C(=O)N[C@@H](Cc1ccccc1)C(=O)N[C@@H](CCC(N)=O)C(=O)N[C@@H](CC(N)=O)C(=O)N[C@@H](CCCNC(=N)N)C(=O)N[C@@H](CCCNC(=N)N)C(=O)N[C@@H](CCSC)C(=O)N[C@@H](CCCCN)C(=O)N[C@@H](Cc1c[nH]c2ccccc12)C(=O)N[C@@H](CCCCN)C(=O)N[C@@H](CCCCN)C(N)=O [PN58]	871000	830000	0.0128	29.5	43.0	
AAVALLPAVLLALLAPRKKRRQRRRPPQ-NH2 [PN27]	1.71e+06	1.67e+06	0.0293	29.9	33.0	In Vivo Tier Ranking [2]: I; in vivo permeability relative to PN159 [2]: comparable to PN159
CC[C@H](C)[C@H](NC(=O)[C@H](CCCCN)NC(=O)[C@H](CCCCN)NC(=O)[C@H](C)NC(=O)[C@H](CC(C)C)NC(=O)[C@H](C)NC(=O)[C@H](C)NC(=O)[C@H](CC(C)C)NC(=O)[C@H](C)NC(=O)[C@H](CCCCN)NC(=O)[C@H](CC(C)C)NC(=O)[C@H](CC(N)=O)NC(=O)[C@@H](NC(=O)[C@H](CCCCN)NC(=O)CNC(=O)[C@H](CC(C)C)NC(=O)[C@H](CC(C)C)NC(=O)[C@H](Cc1ccc(O)cc1)NC(=O)CNC(=O)[C@H](C)NC(=O)[C@H](CO)NC(=O)[C@H](CC(N)=O)NC(=O)[C@H](CC(C)C)NC(=O)[C@@H](NC(=O)[C@H](Cc1c[nH]c2ccccc12)NC(=O)CN)[C@@H](C)O)[C@@H](C)CC)C(=O)N[C@@H](CC(C)C)C(N)=O [PN161]	1.65e+06	1.62e+06	0.0321	34.3	24.0	In Vivo Tier Ranking [2]: I; in vivo permeability relative to PN159 [2]: comparable to PN159
Octylphenolpoly (ethyleneglycolether)× [Triton X-100, reference compound]						LDH ([3]; 1% Triton X-100, positive (100% release) control): 100%
COc1ccc2c3c1O[C@H]1C[C@@H](O)C=C[C@@]31CCN(C)C2 [Galantamine, galantamine]						fold increase in Papp of galantamine with PN159 ([1]; 40 mg/ml galantamine lactate, pH 5.0, with 25, 50, 100 PN159 versus without): 2.5-3.5 fold; Papp ([1]; [PN159] 0 μM): 21 nm/s; Papp ([1]; [PN159] 0 μM, listed as galantamine): about 2.1×10^−6 cm/s; Papp ([1]; [PN159] 25 μM): 51 nm/s; Papp ([1]; [PN159] 50 μM): 62 nm/s; Papp ([1]; [PN159] 100 μM): 72 nm/s
CC[C@H](C)[C@H](NC(=O)[C@H](CCC(=O)O)NC(=O)[C@H](CO)NC(=O)[C@@H](NC(=O)[C@@H](N)CO)C(C)C)C(=O)N[C@@H](CCC(N)=O)C(=O)N[C@@H](CC(C)C)C(=O)N[C@@H](CCSC)C(=O)N[C@@H](Cc1cnc[nH]1)C(=O)N[C@@H](CC(N)=O)C(=O)N[C@@H](CC(C)C)C(=O)NCC(=O)N[C@@H](CCCCN)C(=O)N[C@@H](Cc1cnc[nH]1)C(=O)N[C@@H](CC(C)C)C(=O)N[C@@H](CC(N)=O)C(=O)N[C@@H](CO)C(=O)N[C@@H](CCSC)C(=O)N[C@@H](CCC(=O)O)C(=O)N[C@@H](CCCN=C(N)N)C(=O)N[C@H](C(=O)N[C@@H](CCC(=O)O)C(=O)N[C@@H](Cc1c[nH]c2ccccc12)C(=O)N[C@@H](CC(C)C)C(=O)N[C@@H](CCCN=C(N)N)C(=O)N[C@@H](CCCCN)C(=O)N[C@@H](CCCCN)C(=O)N[C@@H](CC(C)C)C(=O)N[C@@H](CCC(N)=O)C(=O)N[C@@H](CC(=O)O)C(=O)N[C@H](C(=O)N[C@@H](Cc1cnc[nH]1)C(=O)N[C@@H](CC(N)=O)C(=O)N[C@@H](Cc1ccccc1)C(=O)O)C(C)C)C(C)C [PTH1-34, human parathyroid hormone 1-34]						fold increase in Papp of PTH1-34 with PN159 [1]: 3-5 fold
LRKLRKRLLRLRKLRKRLLR-NH2 [PN745]						LDH ([3]; 25 μM peptide, 1 h incubation, % of 1% Triton X-100 control): 11%; LDH ([3]; 100 μM peptide, 1 h incubation, % of 1% Triton X-100 control): 28%; LDH ([3]; 250 μM peptide, 1 h incubation, % of 1% Triton X-100 control): 45%; LDH ([3]; 500 μM peptide, 1 h incubation, % of 1% Triton X-100 control): 45%; LDH ([3]; 1000 μM peptide, 1 h incubation, % of 1% Triton X-100 control): 45%
KLWSAWPSLWSSLWKP-NH2 [PN228]	1.08e+06	1.06e+06	0.0212	30.4	31.0	
KETWWETWWTEWSQPGRKKRRQRRRRPPQ-NH2 [PN183]	275000	258000	0.00545	33.7	22.0	
